From patent US9468209B2, “Method for eradicating weeds with derivatives of 3-acetyl-5-sec-butyl-4-hydroxy-3-pyrrolin-2-one” (priority 2012, dated 2016) come the findings set out here.

Holding throughout (assay): Leaf piece damage test
Assay type in all cases: in vivo
What all share (design): key: 4: The leaf completely dead; 3: Two third of the leaf withered; 2: One half of the leaf withered; 1: Only edge of the leaf withered; 0: Not damage at all
What all share (details): 50 μg/mL, 4 days

One experiment concerns Abrtilon theophrasti. The protocol: (§1) Compounds 7, 14, 15, 16, 40, 45, 48 and 53 were dissolved individually in small amount of methanol, and diluted with distilled water to concentration of 50 μg/mL. Methanol water solution and pure water were used as control. A piece of 5 mm leaf was taken from the second leaf of weed sample and was treated with the solution three times. 5 pieces of the leaf were prepared for each treatment. The damage data were collected 4 days later. The measurement of damage level is described in the Table 9.
(§2) The measurement of the plant damage was calculated by the formula: Damage Index=Σ(damage level×number of plants)×100/4/number of plants in each treatment.

Another experiment deals with Acalypha australis. On the procedure:
as §1, §2

For a further experiment, the system named is Chenopodium serotinum. On the procedure: as §1, §2
A further experiment relates to Commelina bengalensis. On the procedure: as §1, §2
In another experiment the test system is Crisium setosum. On the procedure: as §1, §2
A further experiment concerns Cyperus difformis. On the procedure: as §1, §2
In the next experiment the test system is Cyperus rotundus. On the procedure: as §1, §2
Another experiment has as its system Dichondra repens. On the procedure: as §1, §2
Another experiment deals with Fimbristylis miliacea. On the procedure: as §1, §2
A further experiment deals with Goose grass. The protocol:
as §1, §2

Experiment [1] concerns Green foxtail (Setaria viridis). On the procedure:
as §1, §2

The next experiment relates to Japanese alopecurus. The protocol: as §1, §2
A further experiment has as its system Lapsana apogonoides. The protocol: as §1, §2
Another experiment has as its system Malvaceae. On the procedure:
as §1, §2

The subject of the next experiment is Oxalis corniculata. The protocol: as §1, §2
The subject of experiment [2] is Parthenocissus tricuspidata. On the procedure:
as §1, §2

Another experiment deals with Pharbitis nil. The protocol: as §1, §2
Another experiment relates to Rumex dentatus. On the procedure:
as §1, §2

In another experiment the test system is Sonchus oleraceus. On the procedure:
as §1, §2

Another experiment concerns Veronica percica. On the procedure:
as §1, §2

A further experiment relates to Xanthium sibiricum. The protocol: as §1, §2
For a further experiment, the system named is Youngia japonica. The protocol: as §1, §2

Consider `CCCC(C#N)C1NC(=O)C(=C(C)O)C1=O` (stereo not shown) [Compound 53], for which the Damage level was 3 with Abrtilon theophrasti; 2 in the experiment on Acalypha australis; 3 in the experiment with Chenopodium serotinum; 3 in the experiment with Commelina bengalensis; 4 in the experiment on Crisium setosum; 3 in the experiment with Cyperus difformis. Besides, the Damage level worked out at 2 in the experiment with Cyperus rotundus; 2 with Dichondra repens; 2 in the experiment on Fimbristylis miliacea; 4 in the experiment with Goose grass; 3 in experiment [1]; 3 in the experiment with Japanese alopecurus. Moreover, the Damage level is on record as 3 in the experiment with Lapsana apogonoides; 3 with Malvaceae; 4 in the experiment on Oxalis corniculata; 3 in experiment [2]; 3 with Pharbitis nil; 2 in the experiment with Rumex dentatus. Besides, the Damage level with Sonchus oleraceus came out at 4; in the experiment on Veronica percica it was 3; in the experiment with Xanthium sibiricum, 3; in the experiment on Youngia japonica, 4.
